Data on eleven compounds can be found in PMC6362833 (ACS chemical neuroscience, 2017).

The target of one data set is CaM/AC8-Nt interaction (Homo sapiens, UniProt P0DP23). Kind of data set: Fluorescence polarization. It counts as binding. The following applies: for IC50: FP; for slope of concentration-response curve: FP concentration response. (Fluorescence polarisation rises when a labelled molecule tumbles more slowly, as on binding a larger partner.)
The next data set addresses CaM/AC8 complex (Homo sapiens, UniProt P0DP23). In words: AC8/CaM NanoBiT complementation assay in HEK-293T cells. It counts as cell-based, rat AC8. The following applies: 30 min pretreatment.
Data set [1] can be described thus: CytoTox-Fluor acute cytotoxicity assay. The data set is classed as cell-based. The note with it: human, HEK293T cells, pH 7.4.
The target of data set [2] is AC1 (Homo sapiens, UniProt Q08828). In words: CaM-stimulated AC1 activity in membrane preparations. It counts as biochemical.
The next data set has as its target AC8 (Homo sapiens, UniProt P40145). Kind of data set: CaM-stimulated AC8 activity in membrane preparations. It counts as biochemical. The note with it: for potency against AC8 compared with AC1: membrane preparations; for inhibition at 100 µM: read-out: AC8 % inhibition.
The target of the next data set is CaM/AC8-C2b interaction (Homo sapiens, UniProt P0DP23). Kind of data set: Fluorescence polarization. The note with it: for IC50: FP; for inhibition of CaM/AC8-C2b relative to EGTA control: maximal inhibition, no detergent. It counts as binding.
Another data set relates to HEK-293T cells. Kind of data set: CytoTox-Fluor acute cytotoxicity assay. The data set is classed as cell-based. The note with it: 30 min; for effect on cell viability: up to 31.6 μM.
The target of data set [3] is (Homo sapiens, UniProt P0DP23). Kind of data set: CaM-stimulated AC1 activity in membrane preparations. The following applies: read-out: AC1 % inhibition. The data set is classed as biochemical.
For data set [4], the target named is AC1. The data set is described as above. It counts as biochemical. The following applies: membranes of HEK293 cells stably expressing AC1, CaM-stimulated.
For data set [5], the target named is GST-tagged calmodulin (N-terminally 6X-His-GST-tagged human CaM, residues 1-149) (human) (UniProt P0DP23). In words: fluorescence polarisation.
The subject of a further data set is HERG potassium channel. The note with it: cited from earlier work.
The subject of another data set is L-type Ca^2+ channels. The note with it: cited from earlier work.
The mark [6] stands for this setting: AC8-Nt pIC50, 0% Triton, 316 nM GST-CaM, 100 nM Cy5-AC8-Nt, no Triton X-100.
Where [7] appears, read: AC8-Nt pIC50, 0.01% Triton, 0.01% Triton X-100.
Setting [8] is: AC8-C2b pIC50, 0% Triton, 316 nM GST-CaM, 100 nM Cy5-AC8-C2b, no Triton X-100.
The mark [9] stands for this setting: AC8-C2b pIC50, 0.01% Triton, 0.01% Triton X-100.

Several values for one entry are separate records, joined by “and”; a condition that tells them apart may be missing. Equal values may be shown once. A value given as a limit tells only on which side of the number the result lay.

AC8, sequence (P40145 whole entry): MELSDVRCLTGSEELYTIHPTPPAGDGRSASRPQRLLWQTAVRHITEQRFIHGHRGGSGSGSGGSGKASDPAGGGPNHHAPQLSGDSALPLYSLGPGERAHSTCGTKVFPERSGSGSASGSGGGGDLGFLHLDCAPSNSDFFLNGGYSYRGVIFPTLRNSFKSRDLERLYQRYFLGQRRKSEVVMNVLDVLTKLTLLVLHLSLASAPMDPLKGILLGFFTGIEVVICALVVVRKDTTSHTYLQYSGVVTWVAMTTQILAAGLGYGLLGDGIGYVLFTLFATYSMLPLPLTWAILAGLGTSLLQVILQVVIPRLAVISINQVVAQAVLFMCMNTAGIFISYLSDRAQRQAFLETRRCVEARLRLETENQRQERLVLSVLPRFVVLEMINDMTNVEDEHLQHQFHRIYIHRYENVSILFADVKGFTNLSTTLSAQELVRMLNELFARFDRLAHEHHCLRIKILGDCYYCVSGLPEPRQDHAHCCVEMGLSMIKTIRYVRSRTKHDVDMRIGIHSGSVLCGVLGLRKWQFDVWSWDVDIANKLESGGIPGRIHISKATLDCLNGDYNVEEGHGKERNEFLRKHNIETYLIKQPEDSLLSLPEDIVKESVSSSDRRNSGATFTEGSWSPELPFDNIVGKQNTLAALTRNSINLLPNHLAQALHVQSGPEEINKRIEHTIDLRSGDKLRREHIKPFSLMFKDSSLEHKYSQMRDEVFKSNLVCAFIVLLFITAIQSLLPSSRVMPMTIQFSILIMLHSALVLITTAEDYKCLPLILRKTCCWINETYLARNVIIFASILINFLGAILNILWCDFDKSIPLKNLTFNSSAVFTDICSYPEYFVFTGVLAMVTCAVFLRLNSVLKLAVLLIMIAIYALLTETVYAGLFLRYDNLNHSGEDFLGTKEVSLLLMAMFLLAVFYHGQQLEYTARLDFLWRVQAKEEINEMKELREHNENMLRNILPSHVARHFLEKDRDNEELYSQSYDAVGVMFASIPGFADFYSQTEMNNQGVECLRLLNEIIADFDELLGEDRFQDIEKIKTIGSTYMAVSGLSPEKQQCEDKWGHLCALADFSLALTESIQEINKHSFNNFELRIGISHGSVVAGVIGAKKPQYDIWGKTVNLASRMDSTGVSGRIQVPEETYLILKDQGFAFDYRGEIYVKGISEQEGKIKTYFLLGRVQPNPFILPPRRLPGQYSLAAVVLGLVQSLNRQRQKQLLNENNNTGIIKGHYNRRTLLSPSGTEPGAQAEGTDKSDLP
AC1, sequence (Q08828 whole entry, the tested form may be a part): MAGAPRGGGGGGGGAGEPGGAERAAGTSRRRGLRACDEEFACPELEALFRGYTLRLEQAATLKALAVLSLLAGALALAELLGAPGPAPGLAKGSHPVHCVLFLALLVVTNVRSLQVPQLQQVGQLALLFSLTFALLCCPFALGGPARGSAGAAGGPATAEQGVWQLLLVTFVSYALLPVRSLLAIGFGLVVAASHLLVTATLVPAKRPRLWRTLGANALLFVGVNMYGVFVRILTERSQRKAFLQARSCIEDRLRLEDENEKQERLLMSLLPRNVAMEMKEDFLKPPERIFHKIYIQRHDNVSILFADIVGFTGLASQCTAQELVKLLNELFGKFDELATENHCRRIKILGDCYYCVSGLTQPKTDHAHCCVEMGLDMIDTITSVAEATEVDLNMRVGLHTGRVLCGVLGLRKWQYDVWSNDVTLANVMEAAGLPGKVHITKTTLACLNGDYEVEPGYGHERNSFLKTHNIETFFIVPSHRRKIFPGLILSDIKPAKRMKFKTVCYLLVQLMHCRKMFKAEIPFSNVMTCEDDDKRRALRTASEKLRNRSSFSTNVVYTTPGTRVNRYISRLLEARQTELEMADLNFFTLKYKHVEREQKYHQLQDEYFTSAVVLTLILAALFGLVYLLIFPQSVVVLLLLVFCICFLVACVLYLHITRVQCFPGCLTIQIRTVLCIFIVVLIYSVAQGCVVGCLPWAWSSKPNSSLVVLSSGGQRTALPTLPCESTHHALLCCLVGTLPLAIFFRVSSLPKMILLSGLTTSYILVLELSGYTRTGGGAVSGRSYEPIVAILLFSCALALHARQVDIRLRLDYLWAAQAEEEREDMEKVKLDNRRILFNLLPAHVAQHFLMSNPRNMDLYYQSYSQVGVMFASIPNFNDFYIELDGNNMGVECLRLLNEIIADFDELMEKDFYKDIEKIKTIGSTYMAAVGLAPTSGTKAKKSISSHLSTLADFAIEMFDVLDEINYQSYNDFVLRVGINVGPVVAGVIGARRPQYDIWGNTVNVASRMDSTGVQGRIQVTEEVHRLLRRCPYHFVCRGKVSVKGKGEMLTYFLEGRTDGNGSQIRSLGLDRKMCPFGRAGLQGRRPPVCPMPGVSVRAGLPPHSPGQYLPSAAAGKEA
AC1 (Homo sapiens, UniProt Q08828), sequence (Q08828 whole entry): as the sequence (Q08828 whole entry, the tested form may be a part) above

For `CCCCCCCCCCCCCCCC[N+](C)(C)C` [cetrimonium, cetrimonium bromide], the IC50 (as a rule, the concentration at which inhibition is half-maximal) against CaM/AC8-Nt interaction (setting [6]) was 11.5 µM; on CaM/AC8-Nt interaction (setting [7]), 11.5 µM; against AC1 [2] it was 39.8 µM; against AC8, 22.4 µM. The “NanoBiT potency” value at CaM/AC8 complex is given as “potencies similar to that observed for CDZ”. Also, in [1], the viability – broadly, a read-out of living cells in per cent, often relative to untreated cells – at 30 min, 31.6 µM was found to be 89%. Also, the inhibition (usually the relative decrease from the control value, in per cent) at 100 µM on AC1 [2] (read-out: AC1 % inhibition) is 86 ± 7%; at AC8, 102 ± 2%. Moreover, the “potency against AC8 compared with AC1” value on AC8 is recorded as “slightly more potent against AC8 than AC1”.
For the compound `Clc1ccc(C(c2ccc(Cl)cc2)n2cc[n+](CC(OCc3ccc(Cl)cc3Cl)c3ccc(Cl)cc3Cl)c2)cc1` (stereo not drawn) [CDZ, calmidazolium chloride], the IC50 against CaM/AC8-Nt interaction (setting [6]) is 2.75 µM and 2.82 µM; on CaM/AC8-Nt interaction (setting [7]), 2.88 µM; against CaM/AC8-C2b interaction (setting [8]) it was 3.16 µM; on CaM/AC8-C2b interaction (setting [9]), 9.77 µM; against AC8, 4.68 µM. Further, on CaM/AC8-Nt interaction (concentration response up to 100 μM, relative to EGTA control), the “inhibition of CaM/AC8-Nt FP” value is listed as “complete inhibition”. Besides, the “effect of Triton X-100 on inhibition of CaM/AC8-C2b” value on CaM/AC8-C2b interaction (0.01% Triton X-100) was “Increased inhibition”. In addition, the “inhibition of CaM/AC8-C2b relative to EGTA control” value against CaM/AC8-C2b interaction was “approximately 50%”. For the same compound, the “effect on cell viability” value in the data set on HEK-293T cells is “appreciable cell toxicity at 31.6 μM”. The inhibition at 100 µM came out at 97 ± 3% in [3] and 100% at AC8. For the same compound, on AC1 [4], the “AC1 pIC50” value was 4.87 ± 0.06.
Consider `CC(C)(C)CC(C)(C)c1ccc(OCCOCC[N+](C)(C)Cc2ccccc2)cc1` [benzethonium, Benzethonium chloride], for which the “effect on cell viability” value in the data set on HEK-293T cells is listed as “no negative effect on cell viability”.
As to `CCCCC(CC)CNC(=N)NC(=N)NCCCCCCNC(=N)NC(=N)NCC(CC)CCCC` (stereo not drawn) [alexidine], the IC50 against CaM/AC8-Nt interaction (setting [6]) was 2.14 µM; against CaM/AC8-Nt interaction (setting [7]), 1.41 µM; against CaM/AC8-C2b interaction (setting [8]), 5.89 µM; on CaM/AC8-C2b interaction (setting [9]), 5.89 µM; at AC8, 4.9 µM. The “slope of concentration-response curve” value at CaM/AC8-Nt interaction is −2.7 ± 0.2. Further, the “concentration at which cell viability begins to be reduced” value in the data set with HEK-293T cells (HEK-293T) is no less than 10 µM. The figures for the inhibition at 100 µM (in data set [3]; on AC8) were 162 ± 10% and 106 ± 2%, respectively. For the same compound, at AC1 [4], the “AC1 pIC50” value is on record as 5.24 ± 0.1.
Take “unlabeled AC8-Nt peptide (from UniProt P40145 30-54)”: in [5], the pIC50 (usually −log10 of the IC50, conventionally taken in molar units) turned out to be 5.3.
As to `CCCCCCCCCCCC[N+](C)(C)CCOc1ccccc1` [domiphen, Domiphen bromide], the IC50 was 14.5 µM at CaM/AC8-Nt interaction (setting [6]), 15.5 µM at CaM/AC8-Nt interaction (setting [7]) and 17.4 µM on AC8. The compound further showed a viability at 30 min, 31.6 µM in data set [1] of 99%. Besides, the inhibition at 100 µM in data set [3] is 96 ± 4%; on AC8, 104 ± 1%. Besides, the “AC1 pIC50” value at AC1 [4] amounted to 4.55 ± 0.09. For the same compound, the 50% inhibitory concentration (IC50) at HERG potassium channel in the data set with HERG potassium channel was “single-digit nanomolar”.
In the case of `CCCCCCCCCCCCCCCC[N+](C)(C)CCN(Cc1ccc(OC)cc1)c1ncccn1` [thonzonium, Thonzonium bromide], the IC50 against CaM/AC8-Nt interaction (setting [6]) was 5.37 µM; against CaM/AC8-Nt interaction (setting [7]), 9.12 µM; at CaM/AC8-C2b interaction (setting [8]), 10 µM; against CaM/AC8-C2b interaction (setting [9]) it was 12.6 µM; on AC8, 38.9 µM. Besides, at CaM/AC8-C2b interaction (0.01% Triton X-100), the “effect of Triton X-100 on inhibition of CaM/AC8-C2b” value is “Increased inhibition”. Further, at CaM/AC8-C2b interaction, the “inhibition of CaM/AC8-C2b relative to EGTA control” value is recorded as “approximately 50%”. The “NanoBiT potency” value at CaM/AC8 complex was “potencies similar to that observed for CDZ”. Further, the “effect on cell viability” value in the data set with HEK-293T cells is “did not adversely affect cell viability”. The inhibition at 100 µM in data set [3] amounted to 77 ± 6%; at AC8, 91 ± 1%. Also, the “AC1 pIC50” value on AC1 [4] stood at 4.20 ± 0.06. For the same compound, the “potency against AC8 compared with AC1” value on AC8 is given as “slightly more potent against AC8 than AC1”.
Consider `CN1CCN(CCCN2c3ccccc3Sc3ccc(C(F)(F)F)cc32)CC1` [TFP, trifluoperazine], for which the “effect on cell viability” value in the data set on HEK-293T cells was “without negatively affecting cell viability”.
On the same count and under the same terms, to `NCCCCCCNS(=O)(=O)c1cccc2c(Cl)cccc12` [W7, N-(6-aminohexyl)-5-chloro-1-naphthalenesulfonamide] belongs “without negatively affecting cell viability”.
For `CCCCCCCCOc1ccccc1C(=O)Nc1ccc(C(=O)OCC[N+](C)(CC)CC)cc1` [otilonium, otilonium bromide], the values for the IC50 against CaM/AC8-Nt interaction (setting [6]), against CaM/AC8-Nt interaction (setting [7]) and on AC8 were 16.6 µM, 33.1 µM and 24 µM, respectively. Further, on CaM/AC8-Nt interaction, the “slope of concentration-response curve” value is listed as −3.5 ± 0.2. The compound further registered a viability at 30 min, 31.6 µM in data set [1] of 77%. Besides, the inhibition at 100 µM came to 103 ± 4% in data set [3] and 99 ± 1% at AC8. In addition, on AC1 [4], the “AC1 pIC50” value is reported as 4.58 ± 0.03. The 50% inhibitory concentration (IC50) at L-type Ca2+ channels with L-type Ca^2+ channels was “single-digit micromolar”.
In data set [5], “unlabeled AC8-C2b peptide (from UniProt P40145 1191-1214)” had a negative logarithm of the IC50 (pIC50) of 4.95.
